Experimental data as given in patent US20260354380A1, “PYRAZOLO PESTICIDAL COMPOUNDS” (BASF SE, priority 2022, published 2026).

What was measured:
Assay type in all cases: in vivo
Aedes aegypti = assay: whole plant or invertebrate; conditions: 800 ppm; larvae; 2 days
Experimental: Example B1: Action on Yellow Fever Mosquito (Aedes aegypti)
For evaluating control of yellow fever mosquito (Aedes aegypti) the test unit consisted of 96-well-microtiter plates containing 200 μl of tap water per well and 5-15 freshly hatched A. aegypti larvae.
The active compounds or mixtures were formulated using a solution containing 75% (v/V) water and 25% (v/v) DMSO. Different concentrations of formulated compounds or mixtures were sprayed onto the insect diet at 2.5 μl, using a custom-built micro atomizer, at two replications. For experimental mixtures in these tests identical volumes of both mixing partners at the desired concentrations respectively, were mixed together.
After application, microtiter plates were incubated at 28±1 °C, 80±5% RH for 2 days. Larval mortality was then visually assessed.

Anthonomus grandis = assay: Action on Boll Weevil (Anthonomus grandis); conditions: 800 ppm; egg and larval mortality; 5 days
Experimental: Example B3: Action on Boll Weevil (Anthonomus grandis)
For evaluating control of boll weevil (Anthonomus grandis) the test unit consisted of 96-well-microtiter plates containing an insect diet and 5-10 A. grandis eggs.
The compounds were formulated using a solution containing 75% (v/v) water and 25% (v/v) DMSO. Different concentrations of formulated compounds were sprayed onto the insect diet at 5 μl, using a custom-built micro atomizer, at two replications.
After application, microtiter plates were incubated at about 25±1 °C and about 75±5% relative humidity for 5 days. Egg and larval mortality were then visually assessed.

Heliothis virescens = assay: Action on Tobacco Budworm (Heliothis virescens); conditions: 800 ppm; egg and larval mortality; 5 days
Experimental: Example B5: Action on Tobacco Budworm (Heliothis virescens)
For evaluating control of tobacco budworm (Heliothis virescens) the test unit consisted of 96-well-microtiter plates containing an insect diet and 15-25 H. virescens eggs.
The compounds were formulated using a solution containing 75% v/v water and 25% v/v DMSO. Different concentrations of formulated compounds were sprayed onto the insect diet at 10 μl, using a custom-built micro atomizer, at two replications.
After application, microtiter plates were incubated at about 28±1 °C and about 80±5% relative humidity for 5 days. Egg and larval mortality were then visually assessed.

Plutella xylostella = assay: Action on Diamond Back Moth (Plutella xylostella), cabbage leaf dip, 3rd instar larvae; conditions: 300 ppm; 3rd instar larvae; 72 hours after treatment
Experimental: Example B6: Action on Diamond Back Moth (Plutella xylostella)
The active compound is dissolved at the desired concentration in a mixture of 1:1 (v/v) distilled water:acetone. Surfactant (Kinetic® HV) is added at a rate of 0.01% (v/v). The test solution is prepared at the day of use.
Leaves of cabbage were dipped in test solution and air-dried. Treated leaves were placed in petri dishes lined with moist filter paper and inoculated with ten 3rd instar larvae. Mortality was recorded 72 hours after treatment. Feeding damages were also recorded using a scale of 0-100%.
(§1) Compounds disclosed in the document WO2021013561 were prepared according to procedures described therein and their pesticidal activities were determined by procedure analogues to the procedures as described above in examples B6 and B7.

Spodoptera eridania = assay: Action on Southern Armyworm (Spodoptera eridania), 2nd Instar Larvae; conditions: 300 ppm; 2nd instar larvae; 4 days after treatment
Experimental: Example B7: Action on Southern Armyworm (Spodoptera eridania), 2nd Instar Larvae
The active compounds were formulated by a Tecan liquid handler in 100% cyclohexanone as a 10,000 ppm solution supplied in tubes. The 10,000 ppm solution was serially diluted in 100% cyclohexanone to make interim solutions. These served as stock solutions for which final dilutions were made by the Tecan in 50% acetone: 50% water (v/v) into 10 or 20 ml glass vials. A nonionic surfactant (Kinetic®) was included in the solution at a volume of 0.01% (v/v). The vials were then inserted into an automated electrostatic sprayer equipped with an atomizing nozzle for application to plants/insects.
Lima bean plants (variety Sieva) were grown 2 plants to a pot and selected for treatment at the 1st true leaf stage. Test solutions were sprayed onto the foliage by an automated electrostatic plant sprayer equipped with an atomizing spray nozzle. The plants were dried in the sprayer fume hood and then removed from the sprayer. Each pot was placed into perforated plastic bags with a zip closure. About 10 to 11 armyworm larvae were placed into the bag and the bags zipped closed. Test plants were maintained in a growth room at about 25 °C and about 20-40% relative humidity for 4 days, avoiding direct exposure to fluorescent light (24 hour photoperiod) to prevent trapping of heat inside the bags. Mortality and reduced feeding were assessed 4 days after treatment, compared to untreated control plants.
as §1

SMILES	mortality in comparison with untreated controls (Aedes aegypti)	mortality in comparison with untreated controls (Anthonomus grandis)	mortality in comparison with untreated controls (Heliothis virescens)	mortality in comparison with untreated controls (Plutella xylostella)	mortality in comparison with untreated controls (Spodoptera eridania)
Cc1ccc(C(C)C)c(N2C(=O)CS/C2=N\C(=O)Nc2ccc(-n3cc(NC(=O)c4ccc(CBr)cc4)c(C)n3)cc2)c1 [Example C-31]	at least 50%	at least 75%	at least 75%	at least 75%	at least 75%
COc1ccc(C(=O)Nc2cn(-c3ccc(NC(=O)/N=C4\SCC(=O)N4c4cc(C)ccc4C(C)C)cc3)nc2C)cc1 [Example C-32]	at least 50%	at least 75%	at least 75%	at least 75%	at least 75%
C#Cc1ccc(C(=O)Nc2cn(-c3ccc(NC(=O)/N=C4\SCC(=O)N4c4cc(C)ccc4C(C)C)cc3)nc2C)cc1 [Example C-34]	at least 50%	at least 75%	at least 75%	at least 75%	at least 75%
Cc1ccc(C(C)C)c(N2C(=O)CS/C2=N\C(=O)Nc2ccc(-n3cc(NC(=O)c4ccc(C#N)cc4Cl)c(C)n3)cc2)c1 [Example C-35]	at least 50%	at least 75%	at least 75%	at least 75%	at least 75%
Cc1ccc(C(C)C)c(N2C(=O)CS/C2=N\C(=O)Nc2ccc(-n3cc(NC(=O)c4ccc(C(C)(F)F)cc4)c(C)n3)cc2)c1 [Example C-36]	at least 50%	at least 75%	at least 75%	at least 75%	at least 75%
Cc1ccc(C(C)C)c(N2C(=O)CSC2=NC(=O)Nc2ccc(-n3cc(NC(=O)c4csc(Cl)c4)c(C)n3)cc2)c1 [Example C-39]	at least 50%	at least 75%	at least 75%	at least 75%	at least 75%
Cc1ccc(C(C)C)c(N2C(=O)CSC2=NC(=O)Nc2ccc(-n3cc(NC(=O)c4cc(Cl)cs4)c(C)n3)cc2)c1 [Example C-40]	at least 50%	at least 75%	at least 75%	at least 75%	at least 75%
Cc1ccc(C(C)C)c(N2C(=O)CSC2=NC(=O)Nc2ccc(-n3cc(NC(=O)c4nc(Cl)cs4)c(C)n3)cc2)c1 [Example C-42]	at least 50%	at least 75%	at least 75%	at least 75%	at least 75%
Cc1ccc(C(C)C)c(N2C(=O)CSC2=NC(=O)Nc2ccc(-n3cc(NC(=O)c4csc(Cl)n4)c(C)n3)cc2)c1 [Example C-43]	at least 50%	at least 75%	at least 75%	at least 75%	at least 75%
Cc1ccc(C(=O)Nc2cn(-c3ccc(NC(=O)N=C4SCC(=O)N4c4cc(C)ccc4C(C)C)cc3)nc2C)cc1 [Example C-49]	at least 50%	at least 75%	at least 75%	at least 75%	at least 75%
Cc1ccc(C(C)C)c(N2C(=O)CSC2=NC(=O)Nc2ccc(-n3cc(NC(=O)c4ccncc4)c(C)n3)cc2)c1 [Example C-59]	at least 50%	at least 75%	at least 75%	at least 75%	at least 75%
Cc1ccc(C(C)C)c(N2C(=O)CSC2=NC(=O)Nc2ccc(-n3cc(NC(=O)c4ccc(I)cc4)c(C)n3)cc2)c1 [Example C-71]	at least 50%	at least 75%	at least 75%	at least 75%	at least 75%
Cc1ccc(C(C)C)c(N2C(=O)CSC2=NC(=O)Nc2ccc(-n3cc(NC(=O)c4ccc(S(=O)(=O)C(F)(F)F)cc4)c(C)n3)cc2)c1 [Example C-79]	at least 50%	at least 75%	at least 75%	at least 75%	at least 75%
Cc1ccc(C(C)C)c(N2C(=O)CSC2=NC(=O)Nc2ccc(-n3cc(NC(=O)c4ccc(C(F)F)cc4)c(C)n3)cc2)c1 [Example C-82]	at least 50%	at least 75%	at least 75%	at least 75%	at least 75%
Cc1ccc(C(C)C)c(N2C(=O)CSC2=NC(=O)Nc2ccc(-n3cc(NC(=O)c4ccc(C5(F)CC5)cc4)c(C)n3)cc2)c1 [Example C-88]	at least 50%	at least 75%	at least 75%	at least 75%	at least 75%
